Source: ChEMBL document CHEMBL5634134, “Design, synthesis, and biological evaluation of novel 4,4'-bipyridine derivatives acting as CDK9-Cyclin T1 protein-protein interaction inhibitors against triple-negative breast cancer” (Eur J Med Chem, 2023)
Calls of active or inactive are those of the source. The rule behind the calls is not given here.

Tests used:
[1] = biological target: Cyclin-dependent kinase 7/ cyclin H (Homo sapiens) (UniProt P51946+P50613); assay: Inhibition of Flag-tagged CDK7(unknown origin)/Cyclin H (unknown origin) transfected in HEK293T cells at 1 to 3 uM incubated for 8 hrs by co-immunoprecipitation assay; assay type: cell-based; details: dose 1-3 µM
MDA-MB-231 [2] = assay: Induction of apoptosis in human MDA-MB-231 cells assessed as necrotic cells at 333 nM incubated for 72 hrs by Annexin V-FITC/PI staining based flow cytometry analysis (reference value: 0.49 %); assay type: functional
[3] = Toxicity in athymic BALB/c mouse implanted with mouse 4T1 cells assessed as kidney tissue damage at 12.5 to 25 mg/kg, ip administered for 14 days; assay type: organism-based; details: in vivo, 336 h, dose 12.5-25 mg/kg, time 14 day
[4] = AUC (0 to infinity) in Sprague-Dawley rat at 50 mg/kg, ip measured afer 24 hrs by LC-MS/MS analysis; assay type: ADME, organism-based; details: in vivo
[5] = Toxicity in mouse assessed as median lethal dose administered intraperitoneally for 16 days; details: in vivo, route ip, time 16 day
MDA-MB-231 [6] = assay: Inhibition of cell invasion in human MDA-MB-231 cells at 1000 nM incubated for 24 hrs by crystal violet staining based transwell matrix penetration assay; assay type: functional
[7] = biological target: Cyclin-dependent kinase 2 (Homo sapiens) (UniProt P24941); assay: Binding affinity to CDK2 in human MDA-MB-231 cells asssesed as thermal stabilization at 1 uM incubated for 8 hrs under 45 to 65 degreeC by Western blot analysis; assay type: cell-based
MDA-MB-231 [8] = assay: Effect on C-Myc protein expression in human MDA-MB-231 cells transfected with shCDK9 at 300 nM by Western blot analysis; assay type: functional, cell-based
[9] = Toxicity in mouse assessed as animal death at 62.5 to 500 mg/kg, ip administered for 16 days; assay type: organism-based; details: in vivo, 384 h, dose 62.5-500 mg/kg, time 16 day
MDA-MB-231 [10] = assay: Induction of apoptosis in human MDA-MB-231 cells assessed as late apoptotic cells at 1000 nM incubated for 72 hrs by Annexin V-FITC/PI staining based flow cytometry analysis (reference value: 4.04 %); assay type: functional
[11] = Toxicity in athymic BALB/c mouse implanted with mouse 4T1 cells assessed as body weight loss at 25 mg/kg, ip administered for 14 days; assay type: organism-based; details: in vivo, 336 h, time 14 day
[12] = Half life in Sprague-Dawley rat at 50 mg/kg, ip measured afer 24 hrs by LC-MS/MS analysis; assay type: ADME, organism-based; details: in vivo
[13] = Tmax in Sprague-Dawley rat at 50 mg/kg, ip measured afer 24 hrs by LC-MS/MS analysis; assay type: ADME, organism-based; details: in vivo
4T1 [14] = assay: Antitumor activity against mouse 4T1 cells implanted in athymic BALB/c mouse assessed as reduction in tumor weight at 12.5 to 25 mg/kg, ip administered for 14 days; assay type: functional, organism-based; details: dose 12.5-25 mg/kg, time 14.0 day
MDA-MB-231 [15] = assay: Inhibition of RNA Polymerase II CTD phosphorylation at ser2 residue in human MDA-MB-231 cells at 1 uM incubated for 24 hrs by Western blotting analysis; assay type: cell-based
[16] = Toxicity in athymic BALB/c mouse implanted with mouse 4T1 cells assessed as heart tissue damage at 12.5 to 25 mg/kg, ip administered for 14 days; assay type: organism-based; details: in vivo, 336 h, dose 12.5-25 mg/kg, time 14 day
4T1 [17] = assay: Antitumor activity against mouse 4T1 cells implanted in athymic BALB/c mouse assessed as increase in cleaved PARP at 12.5 to 25 mg/kg, ip administered once daily for 14 days by Western blot analysis; assay type: functional, organism-based; details: dose 12.5-25 mg/kg, time 14.0 day
MDA-MB-231 [18] = assay: Induction of apoptosis in human MDA-MB-231 cells assessed as late apoptotic cells at 111 nM incubated for 72 hrs by Annexin V-FITC/PI staining based flow cytometry analysis (reference value: 4.04 %); assay type: functional
MDA-MB-231 [19] = assay: Inhibition of cell invasion in human MDA-MB-231 cells incubated for 24 hrs by crystal violet staining based transwell matrix penetration assay; assay type: functional; details: dose 37-1000 nM
MDA-MB-231 [20] = assay: Effect on Mcl-1 protein expression in human MDA-MB-231 cells transfected with shCDK9 at 300 nM by Western blot analysis; assay type: functional, cell-based
[21] = biological target: Cyclin-dependent kinase 7 (Homo sapiens) (UniProt P50613); assay: Binding affinity to CDK7 in human MDA-MB-231 cells asssesed as thermal stabilization at 1 uM incubated for 8 hrs under 45 to 65 degreeC by Western blot analysis; assay type: cell-based
Sequence of Cyclin-dependent kinase 7 (Homo sapiens) (P50613 whole entry): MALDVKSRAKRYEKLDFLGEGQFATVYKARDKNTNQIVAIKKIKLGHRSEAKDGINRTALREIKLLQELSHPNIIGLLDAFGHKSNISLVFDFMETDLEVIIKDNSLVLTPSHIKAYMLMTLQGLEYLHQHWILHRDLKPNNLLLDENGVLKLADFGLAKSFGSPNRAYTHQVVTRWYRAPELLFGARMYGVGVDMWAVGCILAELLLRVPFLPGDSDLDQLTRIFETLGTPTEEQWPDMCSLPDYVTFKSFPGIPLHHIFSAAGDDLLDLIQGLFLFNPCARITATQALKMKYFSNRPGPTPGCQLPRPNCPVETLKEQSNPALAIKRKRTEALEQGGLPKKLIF

MDA-MB-231 [22] = assay: Induction of apoptosis in human MDA-MB-231 cells assessed as early apoptotic cells at 333 nM incubated for 72 hrs by Annexin V-FITC/PI staining based flow cytometry analysis (reference value: 0.66 %); assay type: functional
MDA-MB-231 [23] = assay: Antiproliferative activity against human MDA-MB-231 cells assessed as inhibition of 3D tumor growth at 100 nM incubated for 10 days in presence of olaparib by confocal laser scanning microscopic analysis; assay type: functional, cell-based; details: time 10.0 day
MDA-MB-231 [24] = assay: Induction of apoptosis in human MDA-MB-231 cells assessed as early apoptotic cells at 1000 nM incubated for 72 hrs by Annexin V-FITC/PI staining based flow cytometry analysis (reference value: 0.66 %); assay type: functional
MDA-MB-231 [25] = assay: Induction of apoptosis in human MDA-MB-231 cells assessed as necrotic cells at 1000 nM incubated for 72 hrs by Annexin V-FITC/PI staining based flow cytometry analysis (reference value: 0.49 %); assay type: functional
MDA-MB-231 [26] = assay: Antimetastasis activity in human MDA-MB-231 cells assessed as wound closure at 0.1 uM and measured upto 48 hrs by inverted microscope analysis (reference value: 46 %); assay type: functional
[27] = Toxicity in mouse assessed as death rate at 750 mg/kg, ip administered for 16 days relative to control; assay type: organism-based; details: in vivo, time 16 day, read-out: Activity
[28] = AUC (0 to t) in Sprague-Dawley rat at 50 mg/kg, ip measured afer 24 hrs by LC-MS/MS analysis; assay type: ADME, organism-based; details: in vivo
MDA-MB-231 [29] = assay: Effect on RNA polymerase II phosphorylation at Ser2 residue in human MDA-MB-231 cells transfected with shCDK9 at 300 nM by Western blot analysis; assay type: functional, cell-based
MDA-MB-231 [30] = assay: Antiproliferative activity against human MDA-MB-231 cells assessed as decrease in sphere size by measuring sphere diameter at 100 nM incubated for 10 days by confocal laser scanning microscopy (reference value: 508.27 micrometer); assay type: functional; details: time 10 day
MDA-MB-231 [31] = assay: Inhibition of colony formation in human MDA-MB-231 cells at 20 nM incubated for 10 days by crystal violet staining based analysis; assay type: functional, cell-based; details: time 10.0 day
MDA-MB-231 [32] = assay: Inhibition of colony formation in human MDA-MB-231 cells assessed as reduction in colony number incubated for 10 days by crystal violet staining based analysis; assay type: functional, cell-based; details: dose 12-1000 nM, time 10.0 day
MDA-MB-231 [33] = assay: Induction of apoptosis in human MDA-MB-231 cells assessed as early apoptotic cells at 111 nM incubated for 72 hrs by Annexin V-FITC/PI staining based flow cytometry analysis (reference value: 0.66 %); assay type: functional
MDA-MB-231 [34] = assay: Induction of apoptosis in human MDA-MB-231 cells assessed as necrotic cells at 37 nM incubated for 72 hrs by Annexin V-FITC/PI staining based flow cytometry analysis (reference value: 0.49 %); assay type: functional

## COc1ccc(C(=O)Nc2cc(-c3ccnc(N4CCC(O)CC4)c3)ccn2)cc1
[1]
  inhibition: inactive
MDA-MB-231 [2]
  Activity: 0.25%
[3]
  Activity: Non-Toxic
[4]
  AUC(0-inf): 17000 ng·h/mL
[5]
  LD50 at 384 h: 750 mg/kg
MDA-MB-231 [6]
  inhibition: Active
[7]
  Activity: inactive
MDA-MB-231 [8]
  Activity: inactive
[9]
  Activity: Non-Toxic
MDA-MB-231 [10]
  Activity: 71.6%
[11]
  Activity: Toxic
[12]
  half-life: 1.67 h
[13]
  Tmax: 0.5 h
4T1 [14]
  Activity: Active
MDA-MB-231 [15]
  inhibition: Active
[16]
  Activity: Non-Toxic
4T1 [17]
  Activity: Active
MDA-MB-231 [18]
  Activity: 34.93%
MDA-MB-231 [19]
  inhibition: Dose-Dependent Effect
MDA-MB-231 [20]
  Activity: inactive
[21]
  Activity: inactive
MDA-MB-231 [22]
  Activity: 20.4%
MDA-MB-231 [23]
  Activity: Active
MDA-MB-231 [24]
  Activity: 14.2%
MDA-MB-231 [25]
  Activity: 0%
MDA-MB-231 [26]
  Activity: 18%
[27]
  mortality at 384 h: 40%
[28]
  AUC(0-t) at 24 h: 17000 ng·h/mL
MDA-MB-231 [29]
  Activity: inactive
MDA-MB-231 [30]
  Activity: 429.81 um
MDA-MB-231 [31]
  inhibition: inactive
MDA-MB-231 [32]
  inhibition: Dose-Dependent Effect
MDA-MB-231 [33]
  Activity: 21.3%
MDA-MB-231 [34]
  Activity: 0.17%
